Data on one sequence can be found in PMC4827351 (Chemical Science, 2015).

Assay [1] relates to L. monocytogenes ATCC 19115. Put plainly: Cuvette-based bacterial agglutination assay. Type of assay: cell-based, Listeria monocytogenes. Particulars: n = 3. The text has this:
We previously reported a simple cuvette-based in vitro agglutination assay that enables time-dependent monitoring of agglutination of viable bacteria by HD6.[15] We employed this assay to further characterize the trypsin-dependent activity of proHD6 on cultured bacterial cells (Fig. 4a and b). […] In these assays, we defined the “supernatant” as the culture solution in the top portion of the cuvette and the “re-suspension” as the mixture that results from agitating the entire culture after the 6 h incubation period.[15] We observed an ≈1.5-fold log reduction in CFU mL^–1 for the “supernatant” from cultures treated with combination of trypsin and proHD6 relative to the no-peptide control (Fig. 4c). Following “re-suspension”, the total CFU mL^–1 in the cuvette was indistinguishable from that of either the untreated control culture or the bacterial culture treated with proHD6.
Fig. 4 Bacterial agglutination assays for native and cleaved proHD6. (a) Agglutination of E. coli ATCC 25922 and L. monocytogenes ATCC 19115 in 50% MHB treated with proHD6 in the absence and presence of 0.4 μM trypsin or HD6 (control). (b) Representative images of cuvettes containing E. coli ATCC 25922 or L. monocytogenes ATCC 19115 after incubation with 20 μM peptides for 2 h at room temperature. (c) Plots of colony forming units (CFU mL^–1) of E. coli ATCC 25922 and L. monocytogenes ATCC 19115 after treatment with 20 μM peptides for 6 h (mean ± SDM, n = 3). Supernatant is defined as the clarified medium solution in the top portion of the culture and resuspension is defined as the mixture after thoroughly agitating the heterogeneous solution.
Stock solutions (50 μL) of HD6 and proHD6 (0, 50, 100, and 200 μM; 10× concentrations) were prepared in sterile Milli-Q water. If trypsin was required, aliquots of a 1 mg mL^–1 stock solution of TPCK-treated trypsin (Worthington) prepared in sterile Milli-Q water were added to solutions of proHD6 to afford a final trypsin concentration of 0.01 mg mL^–1. The assays were then conducted following the reported procedure.[15] […]

The test system of assay [2] is E. coli ATCC 25922. Put plainly: SEM analysis of bacterial agglutination. Particulars: 3 µM proHD6 treated with trypsin before incubation (trypsin inactivated with APMSF), 30 min, 50 mM Tris-maleate pH 6.4. Type of assay: cell-based, Escherichia coli. The protocol:
Fig. 3 TEM analysis of HD6 self-assembly and SEM analysis of bacterial agglutination. Top row: transmission electron micrographs of 10 mM sodium phosphate pH 7.4 (control), 0.4 μM trypsin (control), 20 μM proHD6 in the absence and presence of 0.4 μM trypsin, and 20 μM HD6. All the samples were incubated at room temperature for 1 h. Scale bar = 100 nm. TEM images obtained using 10 mM Tris-maleate pH 6.4 are presented in Fig. S7. ^† Middle row: scanning electron micrographs of E. coli ATCC 25922 treated with 50 mM Tris-maleate pH 6.4 (control), 0.4 μM APMSF-inactivated trypsin (control), 3 μM proHD6, 3 μM trypsin-cleaved proHD6, or 3 μM HD6. Trypsin-cleaved proHD6 was prepared prior to incubation with the bacteria and the residual enzymatic activity was inhibited by APMSF (Experimental section). Following a 30 min incubation, the bacterial suspensions were centrifuged, fixed, and analyzed by SEM. Scale bar = 20 μm. Bottom row: SEM of L. monocytogenes ATCC19115 treated under the same conditions as in the middle row. Scale bar = 20 μm.
Bacteria were grown aerobically at 37 °C overnight in LB media. The next morning the strains were subcultured and grown to mid-logarithmic phase in LB media. […]

Assay [3] has as its system Salmonella enterica serovar Typhimurium. The assay is described as follows: SEM analysis of bacterial agglutination. Type of assay: cell-based. Particulars: 3 µM proHD6 treated with trypsin before incubation (trypsin inactivated with APMSF), 30 min, 50 mM Tris-maleate pH 6.4. The protocol: Bacteria were grown aerobically at 37 °C overnight in LB media. The next morning the strains were subcultured and grown to mid-logarithmic phase in LB media. An aliquot of the bacteria (0.5–2 × 10^7 CFU mL^–1) was removed, sedimented by centrifugation (7000g × 2 min, 4 °C), washed twice with 50 mM Tris-maleate buffer, pH 6.4, and then resuspended in 0.5 mL of the 50 mM Tris-maleate buffer. The bacterial suspension was incubated at room temperature for 30 min with buffer control, 0.4 μM APMSF-inactivated trypsin, 3 μM proHD6, 3 μM trypsin-cleaved proHD6, or 3 μM HD6. Trypsin-cleaved proHD6 was prepared by incubating 30 μM proHD6 with 4 μM trypsin (Affimetrix, Santa Clara, CA) for 1 h at room temperature in 50 mM Tris-maleate buffer, pH 6.4. At the end of incubation, the trypsin was inactivated by addition of APMSF (p-amidinophenylmethylsulfonylfluoride HCl, Millipore, 25 μg mL^–1), and the mixture was added to the bacterial suspension. The APMSF-inactivated trypsin was similarly prepared, except that proHD6 was omitted from the preincubation. After a 30 min incubation, the treated bacterial suspensions were sedimented by centrifugation (7000g × 5 min, 4 °C), and the buffer supernatant was carefully removed. […]

In the case of “EPLQAEDDPLQAKAYEADAQEQRGANDQDFAVSFAEDASSSLRALGSTRAFTCHCRRSCYSTEYSYGTCTVMGINHRFCCL (disulfide (positions not given here)) [proHD6, 81-residue propeptide of human α-defensin 6, recombinant, from His6-SUMO-proHD6]”, in assay [1] (20 µM proHD6 + trypsin, 6 h, entire culture agitated), the “total CFU mL^-1 after re-suspension versus untreated control culture or culture treated with proHD6” value was “indistinguishable”. For the same sequence, the “agglutination of bacterial culture in cuvette, with trypsin” value in assay [1] (proHD6 + 0.4 µM (0.01 mg/mL) trypsin, 10^8 CFU mL^-1, 50% MHB, room temperature) was “bacterial agglutination and sedimentation occurred”. For the same sequence, the “agglutination of bacterial culture in cuvette” value in assay [1] (proHD6 up to 20 µM, no trypsin, 10^8 CFU mL^-1, 50% MHB, 6 h, room temperature) is given as “remained homogeneous”. In addition, the “bacterial agglutination (SEM), trypsin-cleaved” value is “entangled and agglutinated E. coli” in assay [2]; “did not agglutinate S. Typhimurium unless it was treated with trypsin” in assay [3].
